Measurements from patent US6818666B2, “Bi-aromatic compounds linked via a heteroethylene radical, and pharmaceutical and cosmetic compositions using them” (Galderma Research & Development, priority 1919, dated 2004).

Tested on: mouse embryonic teratocarcinoma F9 cells
Test: differentiation test on mouse embryonic teratocarcinoma cells (F9), secretion of plasminogen activator
Type: cell-based
Details: for AC50: concentration of the test product which produces half of the maximum amount of plasminogen activator secreted; for RAR-agonist character concluded from F9 differentiation results: conclusion drawn from the F9 AC50 results
From the text: Results of differentiation tests on mouse embryonic teratocarcinoma cells (F9) to identify the RAR-agonist molecules as described in Skin Pharmacol. 3, pp. 256-267, 1990.
After treatment with the compounds of the examples cited in the following table, the mouse embryonic teratocarcinoma F9 cells differentiate into endodermal cells. This differentiation is characterized by the secretion of the plasminogen activator into the culture medium.
The activity of the product is expressed by the AC50 value representing the concentration of the test product which produces half of the maximum amount of plasminogen activator secreted.

Question: Which AC50 does the source give for `CC1(C)CCC(C)(C)c2cc(SC#Cc3ccc(C(=O)O)cc3)ccc21` [Compound 2, 4-(5,5,8,8-Tetramethyl-5,6,7,8-tetrahydro-2-naphthylsuphanylethynyl)benzoic acid] here?
Answer: 0.001 µM

Question: And the “RAR-agonist character concluded from F9 differentiation results” value?
Answer: RAR-agonist

Question: How did the AC50 (Mus musculus, F9) turn out when `Cc1cc2c(cc1[Se]C#Cc1ccc(C(=O)O)cn1)C(C)(C)CCC2(C)C` [Compound 18, 6-(3,5,5,8,8-Pentamethyl-5,6,7,8-tetrahydro-2-naphthylselanylethynyl)nicotinic acid] was run?
Answer: 0.034 µM

Question: What about the “RAR-agonist character concluded from F9 differentiation results” value of the same compound?
Answer: RAR-agonist

Question: `COC(=O)c1ccc(C#C[Se]c2ccc3c(c2)C(C)(C)CCC3(C)C)cc1` [Compound 4, Methyl 4-(5,5,8,8-tetramethyl-5,6,7,8-tetrahydro-2-naphthylselanylethynyl)benzoate] was tested. Which AC50 (Mus musculus, F9) did it give?
Answer: 0.004 µM

Question: And the “RAR-agonist character concluded from F9 differentiation results” value?
Answer: RAR-agonist

Question: `COC(=O)c1ccc(C#CSc2ccc3c(c2)C(C)(C)CCC3(C)C)cc1` [Compound 1, Methyl 4-(5,5,8,8,-tetramethyl-5,6,7,8-tetrahydro-2-nachthylsuphanylethynyl)-benzoate] was tested. Which AC50 did it give?
Answer: 0.02 µM

Question: And the “RAR-agonist character concluded from F9 differentiation results” value?
Answer: RAR-agonist

Question: Which AC50 (Mus musculus, F9) does the source give for `CC1(C)CCC(C)(C)c2cc([Se]C#Cc3ccc(C(=O)O)cc3)ccc21` [Compound 5, 4-(5,5,8,8-Tetramethyl-5,6,7,8-tetrahydro-2-naphthylselanylethynyl)benzoic acid] here?
Answer: 0.021 µM

Question: And the “RAR-agonist character concluded from F9 differentiation results” value?
Answer: RAR-agonist

Question: Which results are given for `Cc1cc2c(cc1[Se]C#Cc1ccc(C(=O)O)c(O)c1)C(C)(C)CCC2(C)C` [Compound 16, 2-Hydroxy-4-(3,5,5,8,8-pentamethyl-5,6,7,8-tetrahydro-2-naphthylselanylethynyl)benzoic acid]?
Answer: AC50 (Mus musculus, F9): 0.033 µM; RAR-agonist character concluded from F9 differentiation results: RAR-agonist
